Laboratory results as given in the supplement of paper PMC10307832.

Experiments:
Bortezomib = compound: CC(C)C[C@H](NC(=O)[C@H](Cc1ccccc1)NC(=O)c1cnccn1)B(O)O [Bortezomib]; assay: relative viability (nuclei count vs DMSO), 5 days (fraction); higher = more cells survive
In short: (§1)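 Cells of lung cancer lines were placed in 1536-well plates and kept overnight at 37 °C. Pinning then delivered five library-drug doses (not always all listed), spaced by √10, onto plates anchored with vehicle, and the cells were left 5 days without changing medium. One step fixed, permeabilised and stained them with Hoechst, and MetaXpress counted nuclei in 4× images. Viability, as a median over plates, is treated-well nuclei divided by vehicle-well nuclei, with acceptance only at control CV below 25% and at least one doubling.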

Obatoclax = compound: COC1=CC(c2cc3ccccc3[nH]2)=N/C1=C\c1[nH]c(C)cc1C [Obatoclax]; assay: as above
In short: as §1

Row | Cell Line | relative viability (Bortezomib; 0.0002 µM) | relative viability (Bortezomib; 0.000632 µM) | relative viability (Bortezomib; 0.002 µM) | relative viability (Bortezomib; 0.002 µM, anchor plate) | relative viability (Bortezomib; 0.006325 µM) | relative viability (Bortezomib; 0.02 µM) | relative viability (Obatoclax; 0.01 µM) | relative viability (Obatoclax; 0.03162 µM) | relative viability (Obatoclax; 0.1 µM) | relative viability (Obatoclax; 0.3162 µM) | relative viability (Obatoclax; 1 µM)
1 | NCI-H2085 | 0.979 | 0.978 | 0.993 | 1.07 | 0.617 | 0.23 | 0.962 | 0.975 | 0.9 | 0.943 | 0.56
2 | NCI-H2087 | 0.9 | 1.08 | 0.726 | 0.79 | 0.0629 | 0.0618 | 1.01 | 1.14 | 0.8 | 0.876 | 0.298
3 | NCI-H2126 | 0.968 | 1.02 | 1.03 | 1.1 | 0.924 | 0.749 | 1.03 | 0.959 | 0.931 | 0.989 | 0.918
4 | NCI-H2170 | 0.96 | 0.824 | 1.07 |  | 0.815 | 0.177 | 0.942 | 0.979 | 1.01 | 0.961 | 0.977
5 | NCI-H2228 | 0.929 | 0.974 | 0.638 | 1.06 | 0.103 | 0.123 | 0.951 | 0.922 | 1.01 | 0.791 | 0.595
6 | NCI-H2342 | 1.1 | 0.948 | 1.02 |  | 1.03 | 0.748 | 1.02 | 1.08 | 1.06 | 0.857 | 0.954
7 | NCI-H2347 | 1 | 0.936 | 1.03 | 1.08 | 0.615 | 0.339 | 0.999 | 0.946 | 0.843 | 0.946 | 0.926
8 | NCI-H2405 | 0.96 | 0.907 | 0.988 | 0.939 | 0.293 | 0.18 | 1.07 | 0.997 |  | 1.01 | 1.07
9 | NCI-H3122 | 1 | 0.957 | 1.07 | 1 | 0.825 | 0.149 | 0.985 | 0.931 | 0.927 | 0.984 | 1.01
10 | PC-3 [JPC-3] | 0.905 | 0.998 | 1.04 | 0.82 | 0.358 | 0.231 | 1.02 | 1.01 | 1.01 | 0.985 | 1.02
11 | PC-14 | 0.957 | 0.939 | 0.942 | 0.871 | 0.188 | 0.0669 | 0.943 | 1.02 | 0.787 | 0.796 | 0.313
12 | RERF-LC-KJ | 0.995 | 0.949 | 1.02 | 1.11 | 0.366 | 0.239 | 0.98 | 1.03 | 0.989 | 0.924 | 0.715
13 | SK-LU-1 | 1.02 | 0.969 | 0.778 | 1.22 | 0.212 | 0.162 | 1.03 | 1.04 | 0.797 | 0.808 | 0.616
14 | SK-MES-1 | 0.98 | 0.959 | 1.05 |  | 0.319 | 0.185 | 0.961 | 1 | 0.947 | 0.721 | 0.414
15 | SW 900 | 0.84 | 0.932 | 0.207 |  | 0.154 | 0.17 | 0.887 | 0.871 | 0.748 | 0.703 | 0.365
16 | SW 1573 | 0.963 | 0.981 | 0.947 | 1.02 | 0.11 | 0.0607 | 1.07 | 0.957 | 0.966 | 0.709 | 0.257
17 | UMC-11 | 0.896 | 0.927 | 0.946 | 0.757 | 0.668 | 0.185 | 1.02 | 0.962 | 0.843 | 0.921 | 0.554
